Laboratory results reported in PMC10534891, “Evaluation of 4-Aminoquinoline Hydrazone Analogues as Potential Leads for Drug-Resistant Malaria” (Molecules, 2023).
Read-outs that look alike come from different tables or passages of the source.

Key:
[1] = system: P. falciparum K1 strain; test: P. falciparum K1 asexual growth inhibition, 48 h, SYBR Green-based plate reader assay; type: cell-based, Plasmodium falciparum; details: Plasmodium falciparum, K1, 48 h, read-out: Plasmodium IC50 ± SE
Procedure: Sixteen 4-amino-6-methoxy-quinoline hydrazone compounds (see Figure S1, Supplementary Materials for full structures), with methyl and phenyl substituents at the 2-position (R = Me, Ph) and various substituents at R’ (Table 1), were tested for their antimalarial activities. A 1% parasitised culture at the trophozoite stage was treated with the compounds for 48 h at concentrations of 0.003050–200 µM (four-fold serial dilution) against the P. falciparum K1 strain, and the growth was measured using the SYBR Green-based plate reader assay.
In total, 1% of infected RBCs at the ring or trophozoites stage was exposed to nine dilutions (four-fold serial dilution) of compounds from 50 mM stock solutions in DMSO. A total of 100 µL of culture volume was added in 96-well plates with 100 µL drug dilutions. Plates were either incubated for 48 h or 72 h at 37 °C, 5% CO2, 5% O2 in N2. Following the incubation, 150 µL of the medium was carefully removed and 150 µL of the 5× SYBR Green solution (prepared by adding 2 µL of 10,000× SYBR Green in 4 mL of PBS) was added to each well. Plates were kept in the dark for 45 min. Fluorescence intensity was measured using a microplate reader (Genius Tecan) with an excitation of 485 nm and an emission of 535 nm.
IC50 values were determined using Graph Pad Prism 5.0. Values were calculated using non-linear regression by using log-transformed drug concentration plotted against dose–response. Parasitaemia was calculated and normalised relative to the response on the controls (cultures without drug).

[2] = system: P. falciparum K1 strain; details: read-out: IC50 (published data); published value for comparison; cited from earlier work

CCN(CC)CCCC(C)Nc1ccnc2cc(Cl)ccc12 (centres unmarked) [Chloroquine, reference compound]
IC50 [1]: 0.199 ± 0.04 µM
IC50 [2]: 0.255 ± 0.049 µM
